Source: paper PMC8193492, “Yeast Cell-Based Transport Assay for the Functional Characterization of Human 4F2hc-LAT1 and ‐LAT2, and LAT1 and LAT2 Substrates and Inhibitors” (Frontiers in Molecular Biosciences, 2021)
“And” between values parts separate entries of the source, which are not always exact repeats. Equal entries are not always repeated. Where two headings read alike, the source gives them in different places.

Assays:
4F2hc-LAT1 [1] = settings: host Saos2, read-out: 4F2hc-LAT1 IC50 of L-leucine uptake, cited from earlier work
human 4F2hc-LAT2 [2] = target: T1, human 4F2hc-LAT2 (Homo sapiens, UniProt Q9UHI5); test: [3H]L-leucine radioligand transport assay, P. pastoris cells expressing 4F2hc-LAT2; assay type: cell-based; settings: P. pastoris KM71H cells, OD600 0.75, 0.1 µM [3H]L-leucine, 10 min uptake, 25°C; read-out: IC50 of L-leucine uptake, 4F2hc-LAT2 (this work)
T1 construct: expressed in transfected cells; host or cells: Pichia pastoris KM71H (pPICZB vector)
T1 sequence (Q9UHI5 1-535): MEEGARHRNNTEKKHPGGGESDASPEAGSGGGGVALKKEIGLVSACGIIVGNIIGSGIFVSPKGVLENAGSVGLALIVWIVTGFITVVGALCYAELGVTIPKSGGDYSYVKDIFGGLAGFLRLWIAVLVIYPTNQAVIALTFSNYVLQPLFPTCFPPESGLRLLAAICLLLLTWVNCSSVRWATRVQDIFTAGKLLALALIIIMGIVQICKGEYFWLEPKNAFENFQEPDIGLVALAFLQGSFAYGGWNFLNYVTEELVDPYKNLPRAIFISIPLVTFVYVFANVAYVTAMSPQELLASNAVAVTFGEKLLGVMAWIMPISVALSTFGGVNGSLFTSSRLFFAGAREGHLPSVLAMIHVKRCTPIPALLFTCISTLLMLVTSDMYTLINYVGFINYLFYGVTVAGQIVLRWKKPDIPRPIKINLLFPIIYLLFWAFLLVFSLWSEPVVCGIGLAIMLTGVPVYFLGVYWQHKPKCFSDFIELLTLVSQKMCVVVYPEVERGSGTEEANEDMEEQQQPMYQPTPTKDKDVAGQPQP
T1 sequence (P08195 1-529 partner): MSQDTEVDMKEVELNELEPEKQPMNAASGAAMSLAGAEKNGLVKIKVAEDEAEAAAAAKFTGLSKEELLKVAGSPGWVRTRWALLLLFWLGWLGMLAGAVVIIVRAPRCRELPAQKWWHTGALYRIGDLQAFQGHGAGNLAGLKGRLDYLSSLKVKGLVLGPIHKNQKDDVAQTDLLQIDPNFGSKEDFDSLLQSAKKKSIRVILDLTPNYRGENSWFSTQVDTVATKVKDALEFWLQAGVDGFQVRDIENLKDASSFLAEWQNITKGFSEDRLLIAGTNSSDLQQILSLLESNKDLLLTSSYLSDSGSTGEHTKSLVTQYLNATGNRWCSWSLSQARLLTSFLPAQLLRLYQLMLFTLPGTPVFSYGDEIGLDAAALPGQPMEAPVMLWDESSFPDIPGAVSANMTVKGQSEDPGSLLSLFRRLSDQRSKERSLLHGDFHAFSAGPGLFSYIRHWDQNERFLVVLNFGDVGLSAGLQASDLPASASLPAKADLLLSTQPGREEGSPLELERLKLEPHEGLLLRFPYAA

human LAT1 [3] = target: T2, human LAT1 (Homo sapiens, UniProt Q01650); test: cell-based
T2 sequence (Q01650 whole entry): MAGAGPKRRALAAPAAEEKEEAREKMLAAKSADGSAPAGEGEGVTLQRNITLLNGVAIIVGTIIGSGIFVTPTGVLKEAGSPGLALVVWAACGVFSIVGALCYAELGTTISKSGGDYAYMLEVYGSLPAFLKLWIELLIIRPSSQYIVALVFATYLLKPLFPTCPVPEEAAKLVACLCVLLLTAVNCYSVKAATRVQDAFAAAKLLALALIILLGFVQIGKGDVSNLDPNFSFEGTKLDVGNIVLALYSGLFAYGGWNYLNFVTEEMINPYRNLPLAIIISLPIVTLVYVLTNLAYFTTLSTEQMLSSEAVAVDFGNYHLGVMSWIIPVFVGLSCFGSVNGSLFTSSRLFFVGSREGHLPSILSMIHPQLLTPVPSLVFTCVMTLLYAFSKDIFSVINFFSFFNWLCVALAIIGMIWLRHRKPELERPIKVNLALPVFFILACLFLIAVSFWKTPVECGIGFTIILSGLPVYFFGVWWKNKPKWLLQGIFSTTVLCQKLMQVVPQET
Protocol: (§1) Resulting cells were resuspended in transport buffer (150 mM choline chloride, 1 mM MgCl2, 1 mM CaCl2, 10 mM Tris-HEPES, pH 7.4) containing 50% (v/v) glycerol and the OD600 was adjusted to 40. Cells were stored at −18°C until further use.
(§2) For transport studies, 1 ml of thawed P. pastoris cells (OD600 40) expressing the corresponding transporter were diluted in 50 ml transport buffer and pelleted by centrifugation (3,000 × g, 15 min, room temperature). The pellet was then washed by resuspending it in 50 mL transport buffer and by repeating the washing procedure (centrifugation and resuspension) two times. Finally, the cell pellet was resuspended in 2 ml of transport buffer and incubated for 20 min at 30°C under agitation (300 rpm, Multitron, Infors HT, Bottmingen, Switzerland). […] All transport experiments were performed in a reaction volume of 100 µL. […] The competitors were prepared in 100% (v/v) DMSO. The final DMSO concentration was always 0.5% (v/v), independently of which final substrate or inhibitor concentration was used in the assay. Control samples contained the same concentration of DMSO. Final OD600 values in uptake experiments were 0.75 for all cells (4F2hc-LAT1, LAT1, 4F2hc-LAT2 or LAT2 expressing cells) and untransformed P. pastoris KM71H cells. All transport reactions were done in 2 ml reaction tubes (Eppendorf, Hamburg, Germany) at 25°C under agitation (1,000 rpm, Thermomixer compact, Eppendorf, Hamburg, Germany). Uptakes were terminated after 10 min (uptake time) for all cells by adding 600 µL of pre-chilled transport buffer. Cells were rapidly separated from the buffer by transferring the stopped reactions on a 96-well 0.66 mm glass fiber filter plate (Corning FiltrEX, Corning, NY, United States) and vacuum filtration. Each well was washed with 2 ml of ice-cold transport buffer to remove free radioligand. The plate was then dried overnight at 37°C, and the backside was sealed with a BackSeal (PerkinElmer, Waltham, MA, United States). The trapped radioligand was released by addition of 200 µL scintillation cocktail (MicroScint 40, PerkinElmer, Waltham, MA, United States) to each well, and the plate topside was sealed with Topseal^TM-A Plus (PerkinElmer, Waltham, MA, United States), followed by incubation for 30 min at 25°C and 1,000 rpm (Thermomixer compact, Eppendorf, Hamburg, Germany). Counts were measured in each well for 2 min with a scintillation counter (TopCount NXT, PerkinElmer, Waltham, MA, United States).
(§3) Experiments were performed at least in triplicate. For data analysis, the signal of the untransformed P. pastoris cells was subtracted from the transporter signal to obtain the net transport signal. Data from three independent experiments were taken. […] Every experimental data point was then individually normalized using the corresponding upper plateau values (i.e., the fitted upper plateau value that corresponds to 100%). Single, normalized data points from the three independent experiments were averaged and a sigmoidal model curve was fitted to the data in order to obtain the IC50 values. Prism6 (GraphPad Software) was used for data analysis.

4F2hc-LAT1 [4] = tested on: 4F2hc-LAT1; set-up: method as in Yun et al. (2014); settings: host YD-38; ref Yun et al. (2014); read-out: 4F2hc-LAT1 IC50 of L-leucine uptake; cited from earlier work
4F2hc-LAT1 [5] = tested on: 4F2hc-LAT1; set-up: method as in Khunweeraphong et al. (2012); settings: host HEK293; ref Khunweeraphong et al. (2012); read-out: 4F2hc-LAT1 IC50 of L-leucine uptake; cited from earlier work
human 4F2hc-LAT2 [6] = target: T1, human 4F2hc-LAT2; settings: cited from earlier work; for IC50: host S2 cells, read-out: 4F2hc-LAT2 IC50 of L-leucine uptake
human 4F2hc-LAT1 = target: T3, human 4F2hc-LAT1 (Homo sapiens, UniProt Q01650); test: [3H]L-leucine radioligand transport assay, P. pastoris cells expressing 4F2hc-LAT1; assay type: cell-based
T3 construct: expressed in transfected cells; host or cells: Pichia pastoris KM71H (pPICZB vector)
T3 sequence (Q01650 whole entry, one chain of several): as the sequence (Q01650 whole entry) above

4F2hc-LAT1 [7] = settings: cited from earlier work; for IC50: read-out: 4F2hc-LAT1 IC50 of L-leucine uptake
human LAT2 = target: T4, human LAT2 (Homo sapiens, UniProt Q9UHI5); test: [3H]L-leucine radioligand transport assay, P. pastoris cells expressing LAT2; assay type: cell-based; settings: P. pastoris KM71H cells, OD600 0.75, 0.1 µM [3H]L-leucine, 10 min uptake, 25°C
T4 construct: expressed in transfected cells; host or cells: Pichia pastoris KM71H (pPICZB vector)
T4 sequence (Q9UHI5 1-535): T1 sequence (Q9UHI5 1-535)

4F2hc-LAT1 [8] = tested on: 4F2hc-LAT1; set-up: method as in Kim et al. (2008); settings: host KB cells; ref Kim et al. (2008); read-out: 4F2hc-LAT1 IC50 of L-leucine uptake; cited from earlier work
4F2hc-LAT1 [9] = tested on: 4F2hc-LAT1; set-up: method as in Kim et al. (2008); settings: host C6 cells; reference cell empty, line above: ref Kim et al. (2008); read-out: 4F2hc-LAT1 IC50 of L-leucine uptake; cited from earlier work
4F2hc-LAT1 [10] = tested on: 4F2hc-LAT1; set-up: method as in Yothaisong et al. (2017); settings: host KKU-100; ref Yothaisong et al. (2017); read-out: 4F2hc-LAT1 IC50 of L-leucine uptake; cited from earlier work
4F2hc-LAT1 [11] = tested on: 4F2hc-LAT1; set-up: method as in Häfliger et al. (2018); settings: host 8505c; ref Häfliger et al. (2018); read-out: 4F2hc-LAT1 IC50 of L-leucine uptake; cited from earlier work
4F2hc-LAT1 [12] = tested on: 4F2hc-LAT1; set-up: method as in Yothaisong et al. (2017); settings: host KKU-055; ref Yothaisong et al. (2017); read-out: 4F2hc-LAT1 IC50 of L-leucine uptake; cited from earlier work
human LAT1 [13] = target: T2, human LAT1; settings: Pichia cells expressing the light subunits alone
Protocol: as §1, §2, §3

4F2hc-LAT1 [14] = tested on: 4F2hc-LAT1; set-up: method as in Yothaisong et al. (2017); settings: host KKU-213; ref Yothaisong et al. (2017); read-out: 4F2hc-LAT1 IC50 of L-leucine uptake; cited from earlier work
4F2hc-LAT1 [15] = tested on: 4F2hc-LAT1; set-up: method as in Häfliger et al. (2018); settings: host HT-29; ref Häfliger et al. (2018); read-out: 4F2hc-LAT1 IC50 of L-leucine uptake; cited from earlier work
4F2hc-LAT1 [16] = tested on: 4F2hc-LAT1; set-up: method as in Häfliger et al. (2018); settings: host SW1736; ref Häfliger et al. (2018); read-out: 4F2hc-LAT1 IC50 of L-leucine uptake; cited from earlier work
4F2hc-LAT1 [17] = settings: host Oocytes, cited from earlier work
4F2hc-LAT2 [18] = tested on: 4F2hc-LAT2; set-up: method as in Pineda et al. (1999); settings: host Oocytes; ref Pineda et al. (1999); cited from earlier work
4F2hc-LAT1 [19] = tested on: 4F2hc-LAT1; set-up: method as in Kantipudi et al. (2020); settings: host Pichia pastoris, ref Kantipudi et al. (2020), cited from earlier work
4F2hc-LAT2 [20] = tested on: 4F2hc-LAT2; set-up: method as in Kantipudi et al. (2020); settings: host Pichia pastoris, ref Kantipudi et al. (2020), cited from earlier work
[21] = P. pastoris KM71H cells, OD600 0.75, 0.1 µM [3H]L-leucine, 10 min uptake, 25°C, read-out: IC50 of L-leucine uptake, 4F2hc-LAT1 (this work)

SMILES: NC1(C(=O)O)CC2CCC1C2 (stereo not shown) [BCH, 2-aminobicyclo-(2,2,1)-heptane-2-carboxylic acid]
- IC50 (4F2hc-LAT1 [1]; ref Choi et al. (2017)): 72.2 ± 0.92 µM
- IC50 (4F2hc-LAT1 [1]; ref Kim et al. (2008)): 78.8 ± 3.5 µM
- IC50 (human 4F2hc-LAT2 [2]): 195 µM
- IC50 (human LAT1 [3]): 78 µM
- IC50 (4F2hc-LAT1 [4]): 92.6 ± 8.9 µM
- IC50 (4F2hc-LAT1 [5]): 78.3 ± 12.1 µM
- IC50 (human 4F2hc-LAT2 [6]; ref Morimoto et al. (2008)): 315 ± 68.6 µM
- IC50 (human 4F2hc-LAT1; [21]): 72 µM
- specificity for 4F2hc-LAT1 compared with 4F2hc-LAT2 (from IC50s) (human 4F2hc-LAT1; P. pastoris cell assay): about 2.7 fold
- IC50 (4F2hc-LAT1 [7]; host S2 cells, ref Morimoto et al. (2008)): 132 ± 27.8 µM
- IC50 (human LAT2): 184 µM
- IC50 (4F2hc-LAT1 [8]): 75.3 ± 6.7 µM
- IC50 (4F2hc-LAT1 [9]): 73.1 ± 4.5 µM

SMILES: Nc1cc(COc2c(Cl)cc(C[C@H](N)C(=O)O)cc2Cl)c2oc(-c3ccccc3)nc2c1 [JPH203, (S)-2-amino-3-(4-((5-amino-2-phenylbenzo [d]oxazol-7-yl)-methoxy)-3,5-dichlorophenyl)-propanoic acid]
- IC50 (4F2hc-LAT1 [1]; ref Choi et al. (2017)): 1.31 ± 0.27 µM
- IC50 (4F2hc-LAT1 [10]): 0.25 ± 0.04 µM
- IC50 (4F2hc-LAT1 [11]): 0.12 µM
- IC50 (human 4F2hc-LAT2 [2]): 1.5 µM
- IC50 (4F2hc-LAT1 [12]): 0.2 ± 0.03 µM
- IC50 (human LAT1 [3]): 0.346 µM
- IC50(Pichia-LAT2)/IC50(Pichia-LAT1) ratio (human LAT1 [13]): about 4.9
- IC50 (4F2hc-LAT1 [4]): 0.79 ± 0.06 µM
- IC50 (4F2hc-LAT1 [14]): 0.12 ± 0.02 µM
- inhibition of human 4F2hc-LAT2 (human 4F2hc-LAT2 [6]; S2 cell-based assay, at 10 µM, ref Endou et al. (2008)): almost no inhibition
- IC50 (human 4F2hc-LAT2 [6]; ref Oda et al. (2010)): > 10 µM
- IC50 (human 4F2hc-LAT1; [21]): 0.197 µM
- IC50(Pichia-4F2hc-LAT2)/IC50(Pichia-4F2hc-LAT1) ratio (human 4F2hc-LAT1; P. pastoris cell assay): about 7.6
- specificity for 4F2hc-LAT1 compared with 4F2hc-LAT2 (from IC50s) (human 4F2hc-LAT1; P. pastoris cell assay): about 7.6 fold
- IC50 (4F2hc-LAT1 [15]): 0.134 µM
- IC50(S2-LAT2)/IC50(S2-LAT1) ratio (4F2hc-LAT1 [7]; S2 cells, ref Oda et al. (2010)): > 500
- IC50 (4F2hc-LAT1 [7]; host S2 cells, ref Endou et al. (2008)): 0.19 µM and 0.2 µM
- IC50 (4F2hc-LAT1 [7]; host S2 cells, ref Oda et al. (2010)): 0.14 µM
- IC50 (human LAT2): 1.7 µM
- IC50 (4F2hc-LAT1 [16]): 0.177 µM

SMILES: CC(C)C[C@H](N)C(=O)O [L-leucine]
- IC50 (human 4F2hc-LAT2 [2]): 210 µM
- IC50 (human LAT1 [3]): 9 µM
- Km (4F2hc-LAT1 [17]; ref Friesema et al. (2001)): 46 µM
- Km (4F2hc-LAT1 [17]; ref Kanai et al. (1998)): 18.1 ± 3.4 µM
- Km (4F2hc-LAT1 [17]; ref Yanagida et al. (2001)): 19.7 ± 4.1 µM
- Km (4F2hc-LAT2 [18]): 220 µM
- IC50 (human 4F2hc-LAT1; [21]): 22 µM
- IC50 (4F2hc-LAT1 [19]; read-out: 4F2hc-LAT1 IC50 of L-leucine uptake): 38 µM
- Km (4F2hc-LAT1 [19]; read-out: 4F2hc-LAT1 KM of L-leucine uptake): 25 ± 3 µM
- IC50 (human LAT2): 39 µM
- IC50 (4F2hc-LAT2 [20]; read-out: 4F2hc-LAT2 IC50 of L-leucine uptake): 221 µM
- Km (4F2hc-LAT2 [20]; read-out: 4F2hc-LAT2 KM of L-leucine uptake): 249 ± 22 µM

SMILES: N[C@@H](Cc1cc(I)c(Oc2ccc(O)c(I)c2)c(I)c1)C(=O)O [T3, triiodothyronine]
- Km (4F2hc-LAT1 [17]; ref Friesema et al. (2001)): 0.8 µM
- Km (4F2hc-LAT1 [17]; ref Ritchie et al. (1999)): 1.8 µM

SMILES: NC(Cc1cc(I)c(Oc2cc(I)c(O)c(I)c2)c(I)c1)C(=O)O (stereo not shown) [T4, thyroxine]
- IC50 (human 4F2hc-LAT2 [2]): 42 µM
- IC50 (human LAT1 [3]): 8 µM
- Km (4F2hc-LAT1 [17]; ref Friesema et al. (2001)): 7.9 µM
- Km (4F2hc-LAT1 [17]; ref Ritchie et al. (1999)): 6.3 µM
- IC50 (human 4F2hc-LAT1): 10 µM
- specificity for 4F2hc-LAT1 compared with 4F2hc-LAT2 (from IC50s) (human 4F2hc-LAT1; P. pastoris cell assay): about four-times higher
- Ki (4F2hc-LAT1 [7]; host S2 cells, ref Morimoto et al. (2008), read-out: 4F2hc-LAT1 Ki of L-leucine uptake): 115 ± 2 µM
- IC50 (human LAT2): 25 µM
